# Data taken from US20260062677A1, “ECTODERMAL MESENCHYMAL STEM CELLS AND METHOD FOR PRODUCING SAME” (STEMRIM INC., priority 2017, published 2026).
# Legend:
# [1] = test system: P0^lin+ cells at the cartilage injury site; assay: Parabiosis (P0-Cre::Rosa26-tdTomato / wild-type) and knee cartilage defect model; format: in vivo, mouse; settings: 100 μg via tail vein, twice a week until 4 weeks; knee joint collected at 12 weeks; versus saline (no accumulation); FIG. 27
# Excerpt: (§1) A parabiosis model was created using a 6-week old male wild-type mouse and a 6-week old male cell lineage tracing mouse with reference to Kamran P et al. J Vis Exp. 2013 Oct. 6; (80). Two mice were simultaneously subjected to general anesthetic induction with isoflurane, and positioned on a heat pad. The body side surfaces opposite to each other of the two mice were shaved, and the skin was removed approximately 5 mm wide from the elbow joint to the knee joint. The dorsal skin was continuously sutured with 5-0 VICRYL. The elbow joints and knee joints each opposite to each other were sutured with 3-0 VICRYL. The abdominal skin was also continuously sutured with 5-0 VICRYL. The mice were left on the heat pad until awakened from anesthesia. To avoid restricting activity, up to one pair were raised per cage, and scattered food was offered.
# A parabiosis model was created using a 6-week old male wild-type mouse and a 6-week old male P0-Cre::Rosa26-tdTomato mouse using the method described in 3. above. After completion of the blood chimera at 4 weeks after operation, a 0.5×0.5×0.5 mm cartilage defect was created in the knee joint of the wild-type mouse using a 0.5 mm-diameter hand-turned drill (manufactured by MEISINGER USA, L.L.C.). […] It was sliced at a thickness of 10 μm using a cryostat, and the distribution of Tomato-positive cells was analyzed by confocal microscopy. […]
# vertebral Pα cells = assay: Transcriptome and IPA pathway analysis of vertebral Pα cells after administration; format: in vivo, mouse; settings: compared to control group (saline)
# Method: RNA was extracted from the cell population, and an RNA-seq library was created according to Smart-seq2 protocol (Nature Protocols 9, 171-181 (2014) doi: 10.1038/nprot.2014.006). The obtained library was sequenced with Nextseq 500 (Illumina, Inc.) using a nextseq high output kit (37 bp pair end reads). Using bcl2fastq v2.17.1.14 of Illumina, Inc. with default parameters and optional --no-lane-splitting, conversion of base calls to fastq format and demultiplex were performed. Reads were trimmed using TrimGalore (http://www.bioinformatics.babraham.ac.uk/projects/trim_galore/), and mapping and counting (quantification) were performed using RSEM (Li et al., BMC Bioinformatics 12, 323 (2011); version STAR-2.5.2b). Differential expression analysis among samples was performed using DESeq2 (Love et al., Genome Biol. 15, 550 (2014)). Differentially Expressed Genes (DEGs) were uploaded to the Ingenuity Pathway Analysis (IPA) software (https://www.qiagenbioinformatics.com) to extract the most relevant biological pathways and functions to DEGs. Clustering analysis was performed using ICGS algorithm of AltAnalyze_v.2.1.0-Py based on log 2 converted values of 1-added TPM (Transcripts Per kilobase Million) counts obtained with RSEM (log 2 (TPM+1)). […]
# [2] = test system: knee cartilage injury site; assay: Knee cartilage defect model in wild-type mouse, safranin O staining; format: in vivo; settings: wild-type mouse alone; 100 μg via tail vein twice a week until 4 weeks; 2, 4, 8 and 12 weeks; saline group only fibrous cartilage; FIG. 28
# Method: A parabiosis model was created using a 6-week old male wild-type mouse and a 6-week old male P0-Cre::Rosa26-tdTomato mouse using the method described in 3. above. After completion of the blood chimera at 4 weeks after operation, a 0.5×0.5×0.5 mm cartilage defect was created in the knee joint of the wild-type mouse using a 0.5 mm-diameter hand-turned drill (manufactured by MEISINGER USA, L.L.C.). Shortly after the cartilage defect was created, 100 μg of HA1-44 peptide diluted with 100 μL of saline was administered from the tail vein and subsequently administered at the same dose twice a week until 4 weeks after operation. To the control group, 100 μL of saline was administered to each mouse from the tail vein on the same schedule as in the HA1-44 peptide administration group. A knee joint was collected 12 weeks after knee cartilage defect creation, then fixation with 4% paraformaldehyde (overnight), deashing with 0.5 M EDTA solution (3 days), and 30% sucrose replacement (1 day) were performed to create a frozen block. It was sliced at a thickness of 10 μm using a cryostat, and the distribution of Tomato-positive cells was analyzed by confocal microscopy. […]
# [3] = test system: Pα^+ and Prx1^lin− cells in the skin graft; assay: Parabiosis model (Pα-H2B-GFP::Prx1-Cre::Rosa26-tdTomato / wild-type) with wild-type neonate skin graft; format: in vivo, mouse; settings: peptide given to the reporter partner, neonate skin grafted on back of the wild-type partner; FIG. 26
# Excerpt: as §1
# (§2) The present inventors have previously identified a peptide (HA1-44 peptide) consisting of the amino acid sequence of positions 1-44 (SEQ ID NO: 1) at the N-terminus of HMGB1 protein as a domain having the activity of mobilizing bone marrow-derived Pα-positive mesenchymal stem cells into peripheral blood. […] Furthermore, a cartilage injury was created to the knee joint of a wild-type mouse alone that was not a parabiosis model, then the HA1-44 peptide or saline was administered.
# [4] = test system: CD45-negative, TER-119-negative, and PDGFRβ-positive cells; assay: Phase I clinical study, cells in circulating blood; format: in vivo; settings: human, intravenous administration; peripheral blood mononuclear cell fractions before, 8 h and 24 h after administration; FIG. 33
# Excerpt: Since PDGFRβ is a marker of human mesenchymal stem cells, it is believed that a marker (including a combination of multiple markers) defining iCFPα cells and vertebral CFPα cells in peripheral blood described herein, in which the term “PDGFRα” is replaced with the term “PDGFRβ”, will also be a marker (including a combination of multiple markers) defining EMSC (colony-forming PDGFR-positive cells in peripheral blood or in vertebra) in humans.
# [5] = test system: colony-forming Pα cells in peripheral blood; assay: Colony assay of cultured peripheral blood after HA1-44 peptide administration; format: in vivo, mouse; settings: FIG. 24
# Method: The following method was used to recover cells from peripheral blood. Approximately 800 to 1000 μL of peripheral blood was collected from the heart under general anesthesia (using a 1 mL syringe containing heparin). To remove red blood cells, Hetasep (STEMCELL Technologies, Inc., Cat No. ST-07906) at equal amount of the collected blood was added, the mixture was centrifuged at 100 G for 2 minutes, and incubated at room temperature for 15 minutes, then the supernatant was recovered. The supernatant was subjected to the next experiment as a sample containing nuclear cells in peripheral blood.
# The supernatant obtained by the above procedure (sample containing nucleated cells in peripheral blood) was seeded in a 6-well plate coated with collagen I (Corning Incorporated, Cat No. 356400), and cultured for 10 days under a condition of 37° C., 5% CO2, 5% 02 using a medium containing 1% L-glutamine (NACALAI TESQUE, INC.), 10 μM ROCK inhibitor (Y27632, Tocris Bioscience) and 1% penicillin/streptomycin (NACALAI TESQUE, INC.) in an expansion medium prepared using a MesenCult Expansion Kit (STEMCELL Technologies, Inc., Cat No. ST-05513) according to the manual of the kit (all concentrations described are final concentrations). The medium was replaced with a fresh medium twice a week during the culture period. […]
# [6] = test system: Pα^lin+ cells in grafted skin; assay: Parabiosis model (Pα-Cre::Rosa26-EYFP / wild-type) with epidermolysis bullosa mouse skin graft; format: in vivo; settings: peptide given to the Pα-Cre::Rosa26-EYFP partner, epidermolysis bullosa skin grafted on the wild-type partner; FIG. 25
# Excerpt: as §1, §2
substance,measurement,setting,value
HA1-44 peptide: peptide consisting of amino acid sequence of positions 1-44 (MGKGDPKKPRGKMSSYAFFVQTCREEHKKKHPDASVNFSEFSKK) at the N-terminus of A-box of HMGB1 protein,accumulation of P0^lin+ cells at the cartilage injury site,[1],accumulation of P0^lin+ cells was confirmed
same,"pathways associated with EIF2 signaling, regulation of eIF4 and p70S6K signaling, and mTOR signaling",vertebral Pα cells; FIG. 31,activated
same,expression of cell death-related genes,vertebral Pα cells; FIG. 32,suppressed
same,cartilage regeneration at the cartilage injury site,[2],hyaline cartilage was regenerated
same,Pα^+ and Prx1^lin− cells in the skin graft,[3],presence of Pα^+ and Prx1^lin− cells in the skin graft was confirmed
same,"CD45-negative, TER-119-negative, and PDGFRβ-positive cells in circulating blood",[4],increase
same,number of colonies obtained by culturing peripheral blood,"[5]; lineage tracing mice, versus control group (saline administration)",more colonies than peripheral blood in the control group
same,"markers of the colonies obtained (Pα, Prx1 lineage)",[5]; peripheral blood of lineage tracing mice given the peptide,"All of the colonies were Pα-positive, and the majority of which were Prx1 lineage-negative"
same,Pα^lin+ cells expressing type 7 collagen in regenerated epithelial tissue of the skin graft,[6],presence of Pα^lin+ cells expressing type 7 collagen was confirmed
